How the values were obtained:
Gli1 [1] = experiment: Gli1 expression by qRT-PCR in anti-CD3ε-stimulated murine CD8+ CTLs; type: cell-based; conditions: anti-CD3ε restimulation 6 hours
Method: (§1) FIG. 1. L-type Cav channel agonists increase Gli1 expression and enhance specific cell killing by murine CD8+ CTLs. CD8^+ T cells were isolated from the spleen and inguinal lymph nodes of Rag2^−/− OT-I mice, and CTLs were generated. (A) Cells were restimulated on day 9/10 for 3 hours using plate-bound anti-CD3ε in the presence of indicated concentrations of FPL 64176 or carrier control. RNA was extracted and Gli1 expression was assessed by qRT-PCR. Data is n=3 independent experiments. us=unstimulated cells. (B) An LDH cytotoxicity assay was performed using OT-I CTLs. On day 7, CTLs were co-cultured with Ova peptide-pulsed EL-4 cells in the presence of 10 μM FPL 64176 (squares) or carrier control (circles). Data is n=4 independent experiments. (C) Updated experiment of (A). Data is now n=4 independent experiments. Data is normalised to Tbp as a reference gene. 0h=unstimulated cells. (D) Same data as (B) represented differently. […] Error bars indicate SD. p values were calculated using an unpaired two-tailed Student's t test (C) or a two-way ANOVA (B/D). * indicates p<0.05, ** indicates p<0.01, **** indicates p<0.0001.
FIG. 2. FPL 64176 but not (R)-Baclofen nor Nefiracetam enhance Gli1 expression in murine CD8+ CTLs. Naïve CD8^+ T cells were isolated from the spleens of OT-I Rag2^−/− mice and CTLs were generated. Cells were restimulated using an anti-CD3ε mAb in the presence indicated concentrations of (A) FPL 64176, (B) (R)-Baclofen or (C) Nefiracetam (or carrier control). CTLs were pre-incubated with the relevant pharmacological agents for 40-50 mins prior to stimulation (ensuring sufficient time for the agents, e.g., FPL 64176, to enter the cell. Gli1 expression was assessed by qRT-PCR. Data is n=2 independent experiments. Error bars indicate SD.
To investigate a potential role for L-type Cav channel agonists in modulating CD8+ CTL activation and effector function, CD8+ T cells were isolated from the spleen and inguinal lymph nodes of Rag2−/− OT-I mice and CTLs were generated. […] OT-I mice bear a transgene encoding for a TCR that recognises a chicken ovalbumin (Ova) peptide fragment. Rag2−/− OT-I mice facilitate the isolation of naïve CD8+ T cell populations. Plates were coated using 2.5 μg/mL anti-CD3ε mAb and CD8+ CTLs were stimulated for 3 hours via the TCR in the presence of 5 or 10 μM FPL 64176, an L-type Cav channel agonist, or carrier control. Note that CD8+ CTLs were pre-incubated with FPL 64176 or carrier control for 40-50 mins before stimulation. Gli1 expression was assessed using qRT-PCR.
In brief, naïve CD8+ T cells were isolated from the spleen and inguinal lymph nodes of C57BL/6 wildtype mice and CTLs were generated. […] RNA was extracted from cells and Gli1 expression was assessed by qRT-PCR. […]

EL-4 tumour cells = experiment: LDH cytotoxicity assay, OT-I CD8+ CTLs co-cultured with Ova peptide-pulsed EL-4 target cells; type: cell-based, murine; conditions: 1.25 mM BAPTA, LDH assay 3 h
Method: as §1
FIG. 11. […] (A) Quantitative analysis of live cell numbers. […] (E) Quantitative analysis of live cell numbers. […]
To ensure that the use of L-type Cav agonist is not adversely affecting immune cells, general cell functions were assessed. […]

GLI1 [2] = experiment: GLI1 expression by qRT-PCR in NK-92 cells; type: cell-based, human; conditions: stimulated with anti-NKp46 mAb 4 hours, 100 μM, vs carrier control
Method: FIG. 5. L-type Cav channel agonists increase GLI1 expression in the human NK cell line NK-92 and promote specific tumour cell killing. (A) NK-92 cells were stimulated using an anti-NKp46 mAb for 4 hours in the presence of 10 μM FPL 64176, and GLI1 expression was assessed using qRT-PCR. Data is n=4 independent experiments. (B) NK-92 cells were stimulated using an anti-NKp46 mAb for 4 hours in the presence of 100 μM Bay K8644, and GLI1 expression was assessed using qRT-PCR. Data is n=3 independent experiments. (C) An LDH assay was performed to assess specific cell killing of K562 target cells at indicated effector to target ratios in the presence of 10 μM FPL 64176 (right-hand columns) or carrier control (left-hand columns). Error bars indicate SD. Data is from n=3 independent experiments.
To investigate whether L-type Cav channel agonists are also capable of enhancing GLI1 mRNA levels in the human NK cell line NK-92 (a non-Hodgkin's lymphoma cell line, expressing only Cav1.3), NK-92 cells were stimulated using an anti-NKp46 mAb (5 μg/mL) for 4 hours in the presence of either 10 μM FPL 64176 or 100 μM Bay K8644. For reference, Bay K8644 is a structural analogue of nifedipine, and acts as an L-type Cav channel agonist. GLI1 expression was assessed using qRT-PCR. […] These observations confirm that the GLI1-inducing effect of Cav agonists is not merely restricted to the compound FPL 64176. In particular, in NK cells.

## NC[C@H](CC(=O)O)c1ccc(Cl)cc1 [(R)-Baclofen]
Gli1 [1]; indicated concentrations, vs carrier control (FIG. 2)
  Gli1 expression following TCR activation: little effect

## O=C(O)CN(CC(=O)O)c1ccccc1OCCOc1ccccc1N(CC(=O)O)CC(=O)O [BAPTA]
EL-4 tumour cells
  immune cell killing: depleted

## COC(=O)C1=C(C)NC(C)=C([N+](=O)[O-])C1c1ccccc1C(F)(F)F (stereo not shown) [Bay K8644]
GLI1 [2]
  GLI1 mRNA levels: increased (almost two-fold)

## Cc1cccc(C)c1NC(=O)CN1CCCC1=O [Nefiracetam]
Gli1 [1]; vs carrier control (FIG. 2C)
  reduction of Gli1 expression: around 50%

Reference: US20250222028A1, “ENGINEERED IMMUNE CELL PLATFORM” (Cancer Research Technology Limited, priority 2022, published 2025)
